Data reported in article PMC7504435, “Combined Protein- and Ligand-Observed NMR Workflow to Screen Fragment Cocktails against Multiple Proteins: A Case Study Using Bromodomains” (Molecules, 2020).
pKd: −log10 of the molar value. Like-named read-outs stand apart in the source and are kept apart here.

Assays:
PfGCN5 bromodomain [1] = target: T1, PfGCN5 bromodomain (Plasmodium falciparum, UniProt Q8IB67); assay: 1H CPMG NMR deconvolution of hit mixtures, PfGCN5; type: binding; conditions: 10 µM protein, 100 µM ligand; for 1H CPMG NMR % Drop in Resonance Intensity PfGCN5: for 9 from competition experiments (footnote a)
T1 sequence (Q8IB67 entry or part of it): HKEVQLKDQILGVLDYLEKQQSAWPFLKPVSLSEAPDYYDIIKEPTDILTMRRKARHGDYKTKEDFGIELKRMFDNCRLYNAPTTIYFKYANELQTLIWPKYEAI
Experimental: (§1) The second step is a ^1H CPMG NMR deconvolution of the hit mixtures using the non-fluorine-labeled bromodomains. ^1H CPMG NMR employs a T2 filter to take advantage of the difference in transverse relaxation time between protein and small molecules to filter out the bound-state ligand(s). Unlike the PrOF NMR assay, a single protein is assayed in each experiment. A binding event is characterized by a decrease in ligand resonance intensity from the ligand alone spectrum to the ligand + protein spectrum. A hit is defined as a decrease in resonance intensity ≥ 20%. The ^1H CPMG NMR assay can be tuned by changing the protein or ligand concentration, filter length (Figure 1), or hit criteria depending on how stringent the desired hit rate is. The number of ^1H CPMG NMR deconvolution experiments is directly informed from the first step. If a mixture from the first step was only a hit for one protein, a single ^1H CPMG NMR deconvolution experiment is needed. If a mixture from the first step was a hit for both proteins, two separate ^1H CPMG NMR deconvolutions experiments are needed to determine the fragments that bind to each protein.
(§2) ^1H CPMG NMR. ^1H CPMG NMR screen data were acquired on Bruker Avance III HD 500 with the 5 mm Prodigy TCI cryoprobe inverse cryoprobe (^1H 2500:1 S/N). Competition ^1H CPMG NMR data were acquired on Bruker 700 MHz Avance with a CryoProbe 5 mm TXI (^1H S:N with H2O suppression (2mM sucrose) - 900:1) and excitation sculpting water suppression. Proteins were present at 10 µM in 50 mM phosphate, 100 mM NaCl, pH 7.4 in 100% D2O. In separate NMR tubes, a ^1H CPMG NMR pulse was applied to a 1) mixture of ligands (individual ligands present at 100 µM for the screen and 50 µM for competition experiments) and 2) ligands + protein. […] For the competition experiments, τ was increased to 4.0 ms.

BRD4 D1 = conditions: cited from earlier work; for pKd: data from previous screen
PfGCN5 bromodomain [2] = target: T1, PfGCN5 bromodomain; assay: biochemical; type: binding; conditions: for pKd: PrOF NMR titration, for 9 average of W1454 and W1379, NS = non-saturating, read-out: PfGCN5 Kd; for Initial Mixture PfGCN5 PrOF NMR Δδ: hit mixture containing the fragment, 400 µM each fragment
Experimental: (§3) The screening workflow consists of two dependent steps: 1) a PrOF NMR screen of the 5FW-labeled proteins and a cocktail of 4–5 fragments in a single NMR tube; 2) a ^1H CPMG NMR binding assay to deconvolute the hit mixtures for each protein (Figure 1). In the first step, a dual-protein PrOF NMR spectrum was obtained in which 5FW-PfGCN5, 5FW-BPTF (~ 50 µM each) and mixtures of fragments (400 µM individual fragment) were present in the same NMR tube. […] Chemical shift perturbations indicating a ligand binding event were based on a prior cutoff of Δδ ≥ 0.030 ppm as the definition for a hit mixture. This cutoff was based on a statistical analysis of chemical shift perturbations from a prior BRD4 D1 fragment screen and are described further in the experimental section and in Table S2.
(§4) PrOF NMR. PrOF NMR spectra were obtained on a Bruker Avance III HD 500 with the 5 mm Prodigy TCI inverse cryoprobe (^19F S:N 2000:1). […] The DMSO concentration for all experiments was kept constant at 1%. […] For the PrOF NMR screen, 5FW-BPTF and 5FW-PfGCN5 (35–40 µM in 50 mM phosphate, 100 mM NaCl, pH 7.4) were tested with mixtures of 4–5 fragments, where each individual fragment was 400 µM. […] A 10 Hz line broadening was applied. Titrations were fit to Equation (2), where p is the protein concentration and L is the ligand concentration. (2) Δδ=Δδmax × (Kd+P+L ) − (((Kd + P + L )^2) − 4PL)/2P
(§5) A PrOF NMR binding event is characterized as a change in chemical shift (Δδ) from the protein-only spectrum to the protein + fragment mixture spectrum. We used a prior cutoff of Δδ ≥ 0.030 ppm as the definition of a hit mixture, based on a statistical analysis of chemical shift perturbations from a prior BRD4 D1 fragment screen.

BPTF bromodomain [3] = target: T2, BPTF bromodomain (Homo sapiens, UniProt Q12830); assay: PrOF NMR (dual-protein screen of mixtures, titrations) with 5FW-BPTF; type: binding; set-up: against the bromodomains of BPTF and Plasmodium falciparum GCN5 (PfGCN5); his6; made in house; conditions: for Initial Mixture BPTF PrOF NMR Δδ: hit mixture containing the fragment, 400 µM each fragment
Experimental: as §3, §4, §5

BPTF bromodomain [4] = target: T2, BPTF bromodomain; assay: 1H CPMG NMR deconvolution of hit mixtures, BPTF; type: binding; set-up: deconvolution of the hit mixtures using the non-fluorine-labeled bromodomains; made in house; host or cells: E. coli BL21(DE3); conditions: 10 µM protein, 100 µM ligand; for 1H CPMG NMR % Drop in Resonance Intensity BPTF: for 9 from competition experiments (footnote a)
Experimental: as §1, §2

PfGCN5 bromodomain [5] = target: T1, PfGCN5 bromodomain; assay: Competition 1H CPMG NMR with PfGCN5; type: binding; conditions: competitor at or above the protein concentration
Text: The competition ^1H CPMG NMR and PrOF NMR assays were employed to further probe the binding mode of 9 to PfGCN5. […] At high concentrations, at or above the protein concentration, the competition maxed out at ~ 50% (Figure 2, Figure S10, Table S5). Conversely, TP-238 was able to compete 9 off from BPTF at low concentrations.
^1H CPMG NMR. ^1H CPMG NMR screen data were acquired on Bruker Avance III HD 500 with the 5 mm Prodigy TCI cryoprobe inverse cryoprobe (^1H 2500:1 S/N). Competition ^1H CPMG NMR data were acquired on Bruker 700 MHz Avance with a CryoProbe 5 mm TXI (^1H S:N with H2O suppression (2mM sucrose) - 900:1) and excitation sculpting water suppression. Proteins were present at 10 µM in 50 mM phosphate, 100 mM NaCl, pH 7.4 in 100% D2O. In separate NMR tubes, a ^1H CPMG NMR pulse was applied to a 1) mixture of ligands (individual ligands present at 100 µM for the screen and 50 µM for competition experiments) and 2) ligands + protein. For competition experiments, the ligands were used individually, and the competitor ligands were spiked into tube 2. ^1H CPMG NMR parameters for the screen: NS = 128, acquisition time = 2 s, τ = 2.5 ms, and L = 120. For the competition experiments, τ was increased to 4.0 ms.

BPTF bromodomain [6] = target: T2, BPTF bromodomain; conditions: cited from earlier work
PfGCN5 bromodomain [7] = target: T1, PfGCN5 bromodomain; assay: 1H-15N HSQC NMR titration with PfGCN5; type: binding; conditions: 1H-15N HSQC titration (Figure S14); read-out: Kd PfGCN5
Text: To cross-validate our findings, ^1H-^15N HSQC NMR was used to further examine the binding mode of 9 to PfGCN5 in the presence and absence of known ligands. The ^1H-^15N HSQC spectrum of PfGCN5 is unassigned. For ease of spectral interpretation, all resonances that were distinctly visible were assigned as 1-64. Fragment 9, GSK4027, and the acetylated peptide H2A.Z II K7,13ac were titrated against PfGCN5. At the highest ligand concentration, resonances with Δδ > x^− + 0.60*s, where x^− is the mean and s is the standard deviation at the highest concentration, were defined as significant. The correction factor of 0.60 is to compensate for only 60% of the resonances being usable for analysis. Titration of 9 with PfGCN5 gave linear and non-linear dose-dependent chemical shift perturbations. Of the five resonances with non-linear movement, only one (10) was considered to have significant movement. […] This affinity with the non-fluorine-labeled protein is similar but higher than the affinity determined by PrOF NMR. […]
^1H-^15N SOFAST HSQC.^1H-^15N SOFAST HSQC spectra were obtained on a Bruker 600 MHz Avance NEO with a CryoProbe 5 mm TCI (^1H, ^13C, ^15N, ^2H) w/ Z-gradient using Bruker’s IBS_SOFAST.x method with 32 scans, 0.05 s acquisition time, and 0.2 s delay. […] Data were processed with nmrDraw, nmrPipe, and NFRAM Sparky. Δδ^1H-^15N was calculated using Equation (3). […]

[8] = PrOF NMR titration, NS = non-saturating, NB = no binding

Row | Compound | PfGCN5 CPMG % decrease (PfGCN5 bromodomain [1]) [%] | 1H CPMG NMR % Drop in Resonance Intensity PfGCN5 (PfGCN5 bromodomain [1]) | pKd (BRD4 D1) | pKd (PfGCN5 bromodomain [2]) | Initial Mixture PfGCN5 PrOF NMR Δδ (PfGCN5 bromodomain [2]) | Initial Mixture BPTF PrOF NMR Δδ (BPTF bromodomain [3]) | BPTF CPMG % decrease (BPTF bromodomain [4]) [%] | 1H CPMG NMR % Drop in Resonance Intensity BPTF (BPTF bromodomain [4]) | other results
1 | N#Cc1cccc(C(=O)NC2CCC3OCCOC3C2)c1 (centres unmarked) [Fragment 1] | 100 | +++++ (+++++ = 100%) | < 3.40 | < 3.00 | ++ (++ = 0.050 < Δδ < 0.099) | - (For PrOF NMR = Δδ < 0.029 ppm) | – | – | –
2 | COC(=O)N1CCC(CNC(=O)c2ccco2)CC1 [Fragment 2] | 100 | +++++ (+++++ = 100%) | 3.35 | 3.44 | +++ (+++ = 0.1 < Δδ < 0.199) | ++ (++ = 0.050 < Δδ < 0.099) | – | – | –
3 | CCC(=O)NCc1nccc(N(C)C)n1 [Fragment 3] | 82 | ++++ (++++ = 80–99.9%) | < 3.40 | < 3.00 | ++++ (++++ = Δδ > 0.2) | - (For PrOF NMR = Δδ < 0.029 ppm) | – | – | –
4 | Cc1ccc2c(C#N)c(N)sc2c1 [Fragment 4] | – | – | < 3.40 | – | - (For PrOF NMR = Δδ < 0.029 ppm) | + (+ = 0.030 < Δδ < 0.049) | 100 | +++++ (+++++ = 100%) | BPTF Kd (BPTF bromodomain [3]; [8]): no binding; pKd (BPTF bromodomain [3]; [8]): < 3.00
5 | CC(C)CNc1ncc([N+](=O)[O-])c(N)n1 [Fragment 5] | – | – | < 3.40 | – | - (For PrOF NMR = Δδ < 0.029 ppm) | ++ (++ = 0.050 < Δδ < 0.099) | 65 | +++ (+++60–80%) | pKd (BPTF bromodomain [3]; [8]): < 3.00
6 | Cc1cccc(NC(=O)C2CCN(S(C)(=O)=O)CC2)c1 [Fragment 6] | – | – | < 3.40 | – | - (For PrOF NMR = Δδ < 0.029 ppm) | + (+ = 0.030 < Δδ < 0.049) | 25 | + (+ = 20–39.9%) | Bind BRD4? (BRD4 D1; Y/N, previous screen): not bind; selectivity, binds PfGCN5 over BPTF (PfGCN5 bromodomain [2]; ratio of Kd values): > 6 fold; pKd (BPTF bromodomain [3]; [8]): 3.27
7 | CS(=O)(=O)N1CCC2(CC1)OC(=O)c1ccccc12 [Fragment 7] | 100 | +++++ (+++++ = 100%) | < 3.40 | 3.82 | +++ (+++ = 0.1 < Δδ < 0.199) | +++ (+++ = 0.1 < Δδ < 0.199) | 49 | ++ (++ = 40–59.9%) | pKd (BPTF bromodomain [3]; PrOF NMR titration): < 3.00
8 | CN1C[C@H](Nc2cnn(C)c(=O)c2Br)C[C@H](c2ccccc2)C1 [GSK4027, reference compound] | – | – | – | – | – | – | – | – | PrOF NMR titration with 5FW-PfGCN5, result in words (PfGCN5 bromodomain [2]): binds PfGCN5 strongly; competition maximum in 1H CPMG NMR competition with 9 (PfGCN5 bromodomain [5]): ~ 50%
9 | Cc1nnc2c3ccccc3c(N[C@@H](C)[C@H](c3ccccc3)N(C)C)nn12 [L-Moses, reference compound] | – | – | – | – | – | – | – | – | competition maximum in 1H CPMG NMR competition with 9 (PfGCN5 bromodomain [5]): ~ 50%
10 | H2A.Z II K7,13ac peptide N-terminal tail (from UniProt Q71UI9) | – | – | – | – | – | – | – | – | pKd (BPTF bromodomain [6]): 3.51
11 | H2A.Z II K7,13ac: acetylated N-terminal tail peptide of a histone protein (AGGKAGKDSGKAKAK; acetyl-Lys7 and acetyl-Lys13 in mature numbering (UniProt K8 and K14); C-terminal amide expected from NovaSyn TGR resin) [reference compound] | – | – | – | – | – | – | – | – | pKd (PfGCN5 bromodomain [7]): 3.17
